Patent publication US20240277708A1, “Use of [1,2,4] Triazolo [4,3-B] Pyridazine Derivative For Preventing and Treating Senescence and Senescence-Related Diseases” (The Eighth Affiliated Hospital, Sun Yat-Sen University, priority 2023, published 2024)

How the values were obtained:
[1] = system: C57BL/c mice, VD3-induced vascular calcification; assay: VD3-induced aortic vascular calcification mouse model, alizarin red staining; assay type: in vivo; conditions: VD3 500 IU/g/day for 2 days, C1632 68 mg/kg twice a week, after 6 days; FIG. 15
Method: C57BL/c mice were intraperitoneally injected with VD3 at a dose of 500 IU/g/day for 2 consecutive days, and then divided into: (1) Saline group; (3) C1632 group, 10 mice in each group. C1632 was administered twice a week, and CKD mice were treated with C1632 at a dose of 68 mg/kg of body weight each time. After 6 days, the mice were sacrificed, and the aortic blood vessels were dissected for alizarin red staining and hydroxyapatite staining.

[2] = system: BJ cells; assay: VP16-induced cellular senescence, SA-β-gal staining, BJ cells; assay type: cell-based, Human; conditions: C1632 120 μM, VP16 40 μM for 4-7 days, FIG. 1A, 1B
Method: MRC5 and BJ cells were cultured in DMEM low-glucose medium containing 10% FBS. The cells were passaged or plated at a ratio of 1:3.0.5×10^5 cells were plated in 12-well plates and in the next day treated with VP16 at a final concentration of 40 μM for 4-7 days to induce cellular senescence. A cellular senescence model was constructed. While inducing cellular senescence, C1632 with a final concentration of 120 μM is added. The effect of C1632 on the senescence of BJ and MRC5 cells was detected by SA-β-gal staining, and the effect of C1632 on cellular senescence was studied.

## CC(=O)N(C)c1cccc(-c2ccc3nnc(C)n3n2)c1 [C1632]
[1]
  Aortic vascular calcification, alizarin red staining: significantly inhibits the progression of aortic vascular calcification
[2]
  VP16-induced senescence (β-gal-positive cell rate) in BJ cells: inhibits VP16-induced senescence
